Oligonucleotides are written 5' to 3', each unit as a sugar letter and its base; * is a phosphorothioate linkage, no mark a phosphodiester; rarer units and linkages stand in square brackets, end groups in braces. Plain capitals give the bases only. k = constrained ethyl (cEt); [5mC] = 5-methylcytosine; d = 2'-deoxy (DNA)
Legend:
[1] = cynomolgus monkey, in vivo, sc, 40 mg/kg
Protocol: (§1) Prior to the study, the monkeys were kept in quarantine for a 30-day period, during which the animals were observed daily for general health. The monkeys were 2-4 years old and weighed between 2 and 4 kg. Thirteen groups of four randomly assigned male cynomolgus monkeys each were injected subcutaneously with ISIS oligonucleotide or PBS. PBS solution or ISIS oligonucleotides, at a dose of 40 mg/kg, were administered with a loading regimen consisting of four doses on the first week of the study (days 1, 3, 5, and 7), followed by a maintenance regimen consisting of once weekly administration starting on Day 14 (weeks 2 to 6). Subcutaneous injections were performed in clock-wise rotations at 4 sites on the back; one site per dose. The injection sites were delineated by tattoo, while sedated using ketamine, and were separated by a minimum of 3 cm.
To evaluate the effect of ISIS oligonucleotides on kidney function, the monkeys were fasted overnight. Approximately, 1.5 mL of blood samples were collected from all the study groups on day 44. Blood was collected in tubes without anticoagulant for serum separation. The tubes were kept at room temperature for a minimum of 90 min and then centrifuged at 3,000 rpm for 10 min. Levels of BUN and creatinine were measured using a Toshiba 120FR NEO chemistry analyzer (Toshiba Co., Japan).

[2] = cynomolgus monkey, in vivo, sc, 40 mg/kg; remark: listed apart in the source
[3] = cynomolgus monkey, in vivo, sc, 40 mg/kg; remark: listed apart in the source
Protocol: as §1
Kidney function was also assessed by urinalysis. Fresh urine from all animals was collected on day 44 using a clean cage pan on wet ice. Food was removed overnight the day before fresh urine collection was done but water was supplied. The total protein and creatinine levels were measured using a Toshiba 120FR NEO automated chemistry analyzer (Toshiba Co., Japan) and the protein to creatinine ratio was calculated.

[4] = cynomolgus monkey, in vivo, sc, 40 mg/kg; remark: listed apart in the source
[5] = cynomolgus monkey, in vivo, sc, 40 mg/kg; remark: listed apart in the source
[6] = cynomolgus monkey, in vivo, sc, 40 mg/kg; remark: listed apart in the source
Protocol: as §1
To evaluate any effect of ISIS oligonucleotides in cynomolgus monkeys on hematologic parameters, blood samples of approximately 0.5 mL of blood was collected day 44 from each of the available study animals in tubes containing K2-EDTA. Samples were analyzed for red blood cell (RBC) count, white blood cells (WBC) count, platelet count, hemoglobin content and hematocrit, using an ADVIA2120i hematology analyzer (SIEMENS, USA).

KLK2 mRNA = KLK2 mRNA (AR target gene) in C4-2B MR cells; type: cell-based, human
AR mRNA [7] = assay: Antisense inhibition of human AR in HuVEC cells, single concentration (electroporation, qRT-PCR RTS3559); type: cell-based; conditions: 500 nM ASO, electroporation, ~24 h, Table 2
In short: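 AR mRNA levels were measured with human primer-probe set RTS3559 and adjusted for total RNA (RIBOGREEN). Cells were HuVEC, with each antisense oligonucleotide delivered by electroporation at one concentration.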

C4-2B MR cells = assay: Proliferation of MDV3100-resistant C4-2B cells (CellTiter 96); type: cell-based, human; conditions: 6 days
Protocol: ISIS 549372, ISIS 549434, ISIS 549458, and ISIS 554221 were each added to the culture media at 0.04 μM, 0.20 μM, 1.00 μM, and 5.00 μM concentration of antisense oligonucleotide. ISIS 347526 was included as a negative control. After a treatment period of 6 days, the proliferative capacity of the cancer cells was measured with using CellTiter 96® AQueous One Solution Cell Proliferation kit (Promega), following the manufacturer's instructions. Results are presented in Table 41 as percent inhibition of proliferation, relative to non-treated cells.

KLK3 mRNA = KLK3 mRNA (AR target gene) in C4-2B MR cells; type: cell-based, human
total AR mRNA = assay: Total (full-length) AR mRNA in C4-2B MR cells, free uptake; type: cell-based, human; conditions: free uptake, 24 hrs
Protocol: Cells were plated at a density of 40,000 cells per well in 96-well plates and cultured in RPMI1640 medium with 10% fetal bovine serum. […] ISIS 549372, ISIS 549458, ISIS 549434, and ISIS 554221 were each added at 0.04 μM, 0.20 μM, 1.00 μM, and 5.00 μM concentrations of antisense oligonucleotide to culture media for free uptake by the cells. […] After a treatment period of 24 hrs, total AR mRNA levels were measured by quantitative real-time PCR using primer probe set RTS3559.

AR mRNA [8] = assay: Dose-dependent antisense inhibition of human AR in HuVEC cells (electroporation, qRT-PCR RTS3559, IC50); type: cell-based; conditions: HuVEC, ~16 h, Table 4
In short: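 HuVEC cells dosed with antisense oligonucleotides by electroporation and treated approximately 16 hours. AR mRNA quantified by real-time qPCR with primer probe set RTS3559 and normalised to total RNA by RIBOGREEN; IC50 from dose-response.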

## ISIS 584163: antisense compound targeted to human AR (GAACATTATTAGGCTA; 3-10-3 (S)-cEt gapmer, further chemistry not given here)
[1]
  Plasma BUN: 22.4 mg/dL
  Plasma Creatinine: 0.82 mg/dL
[2]
  ALT: 50 IU/L
  AST: 68 IU/L
  Albumin: 4.2 g/dL
[3]
  Urine protein/creatinine ratio: 0.01
[4]
  Body Wt: 2.5 kg
  Heart weight: 8.4 g
  Kidney weight: 15 g
  Liver weight: 54 g
  Mesenteric lymph nodes weight: 3.3 g
  Spleen weight: 3.2 g
[5]
  C3 (% of baseline): 102 % of baseline
  CRP: 1.0 mg/dL
[6]
  HCT: 44%
  Hemoglobin: 12.8 g/dL
  Platelets: 461000 µL
  RBC: 5.5e+06 µL
  WBC: 9100 µL

## 549434 (k[5mC]*kT*kA*dA*dA*d[5mC]*dT*dT*d[5mC]*d[5mC]*d[5mC]*dG*dT*kG*kG*k[5mC]) [compound 549434]
KLK2 mRNA; 0.04 μM
  Percent inhibition of KLK2 mRNA in C4-2B MR cells: 5%
KLK2 mRNA; 0.20 μM
  Percent inhibition of KLK2 mRNA in C4-2B MR cells: 27%
KLK2 mRNA; 1.00 μM
  Percent inhibition of KLK2 mRNA in C4-2B MR cells: 49%
KLK2 mRNA; 5.00 μM
  Percent inhibition of KLK2 mRNA in C4-2B MR cells: 68%
AR mRNA [7]
  % inhibition: 96%
C4-2B MR cells; 0.04 μM
  Percent inhibition of C4-2B MR cell proliferation: 0%
C4-2B MR cells; 0.20 μM
  Percent inhibition of C4-2B MR cell proliferation: 0%
C4-2B MR cells; 1.00 μM
  Percent inhibition of C4-2B MR cell proliferation: 21%
C4-2B MR cells; 5.00 μM
  Percent inhibition of C4-2B MR cell proliferation: 22%
KLK3 mRNA; 0.04 μM
  Percent inhibition of KLK3 mRNA in C4-2B MR cells: 10%
KLK3 mRNA; 0.20 μM
  Percent inhibition of KLK3 mRNA in C4-2B MR cells: 47%
KLK3 mRNA; 1.00 μM
  Percent inhibition of KLK3 mRNA in C4-2B MR cells: 42%
KLK3 mRNA; 5.00 μM
  Percent inhibition of KLK3 mRNA in C4-2B MR cells: 64%
Total AR mRNA; 0.04 μM
  Percent inhibition of full-length AR mRNA in C4-2B MR cells: 9%
Total AR mRNA; 0.20 μM
  Percent inhibition of full-length AR mRNA in C4-2B MR cells: 36%
Total AR mRNA; 1.00 μM
  Percent inhibition of full-length AR mRNA in C4-2B MR cells: 66%
Total AR mRNA; 5.00 μM
  Percent inhibition of full-length AR mRNA in C4-2B MR cells: 88%
AR mRNA [8]; 55.6 nM
  percent inhibition of AR: 38%
AR mRNA [8]; 166.7 nM
  percent inhibition of AR: 60%
AR mRNA [8]; 500.0 nM
  percent inhibition of AR: 86%
AR mRNA [8]; 1500.0 nM
  percent inhibition of AR: 96%
AR mRNA [8]
  IC50: 85 nM

Reference: USRE48461E1, “Modulation of androgen receptor expression” (Ionis Pharmaceuticals, Inc., priority 2012, dated 2021)
